Measured values reported in US5126258A (priority 1988, dated 1992).
Where two headings read alike, the source gives them in different places.

Columns and labels:
[1] = molecular target: monoclonal antibody P3 6D4; assay: Kinetics and inhibition of catalytic ester hydrolysis by monoclonal antibody P3 6D4, spectrophotometric at 245 nm; assay type: biochemical, mouse; details: substrate Compound 7; read-out: inhibition constant ki, catalytic reaction with Compound 7
Method: FIG. 4 illustrates a Lineweaver-Burk plot for the hydrolysis of Compound 7 by anti-Compound 4 monoclonal antibody from hybridoma P3 6D4. Velocities were determined spectrophotometrically by measuring initial rates during the first linear portion of the reaction as described with reference to Table 2. The substrate concentrations were corrected for amounts consumed during initial equilibration. ( ) No inhibitor present. ( ) Inhibited by 50 nM phosphonate (Compound 3). ( ) Inhibited by 100 nM phosphonate (Compound 3).
In particular, an exemplary monoclonal receptor was produced by the standard hybridoma technology of Kohler et al., Nature, 256, 495 (1975). Specifically, female 129G1X^+ mice were immunized by intraperitoneal injection with an inoculum of 100 micrograms of conjugate (e.g., Compound 4i bound to KLH) in 300 microliters of a 1:1 mixture of phosphate buffered saline (PBS) pH 7.4 and complete Freund's adjuvant. Two weeks later, the mice were again injected in a like manner with 50 micrograms of the foregoing conjugate in 300 microliters of a 1:1 mixture of PBS (pH 7.4) and 10 mg/ml alum. After an additional eight weeks, the mice were immunized intravenously with 50 micrograms of the conjugate in 200 microliters of PBS (pH 7.4). The spleens were removed from the mice 4 days later, and the spleen cells were fused to myeloma cells.
Reaction kinetics were measured spectrophotometrically by following the absorption change at 245 nanometers. […] Kinetic parameters obtained with these substrates are shown in Table 2 along with the inhibition constants obtained with phosphonate (Compound 3). Under these conditions, the acceleration above the background rate is about 960-fold for Compound 7 and about 200-fold for Compound 8 (corrected for the background hydrolysis rate).
*The kinetic parameters shown in Table 2 are for the hydrolysis of esters
(Compounds 7 and 8) by monoclonal antibody P3 6D4. A PerkinElmer lambda 4
spectrophotometer, equipped with thermostatted cell holder, was used to
measure absorption changes at 245 nm. Cells containing the substrate at
concentrations of 0.5 to 50 micromolar in phosphate buffer (50 mM, pH 8.0
were preequilibrated at 25 degrees C. The concentration of active IgG in
stock solution was found by reacting with the coumarin ester (Compound 5)
and measuring the yield of hydroxycoumarin by fluorescence. The kinetic
run was initiated by addition of an aliquot of the antibody stock solutio
(in 50 mM phosphate buffer, pH 8.0) calculated to give 100 nM IgG. The
mixture was allowed to equilibrate for 2 to 3 minutes and the rate was
then measured during the subsequent 10 minutes. The absorption change for
complete hydrolysis was determined by treatment with esterase. Kinetic
parameters were obtained from L ineweaverBurk plots (see FIG. 4).
Inhibition constants were determined from a plot of the slopes with at
least four inhibitor concentrations of Compound 3. The data were analyzed

[2] = molecular target: monoclonal receptor P3 6D4; assay: Stoichiometric transacylation reaction of monoclonal receptor P3 6D4 with coumarin ester Compound 5 (fluorescence) and its inhibition/inactivation; assay type: biochemical, mouse
Method: A Perkin-Elmer LS-5 fluorescence spectrometer was operated at a fixed wavelength, using 355 nanometers (nm) for excitation and measuring the emission at 455 nm. A stock solution of the coumarin ester 5 was prepared in dioxane and was diluted to the desired concentrations in Tris-HCl (50 mM, pH 7) or sodium phosphate (50 mM, pH 4-9).
Reactions were run at 23 degrees C and were initiated by the addition of an aliquot of antibody solution (1 mg/ml) to substrate solutions to provide a final protein concentration of 100 nM. Final fluorescence values were determined by hydrolysis of the substrate with pig liver esterase. The observed reaction rate was corrected for spontaneous hydrolysis. Reaction kinetics were studied by measuring initial rates under pseudo-first order conditions. Active protein concentration was extrapolated from fluorescence values at the end of the reaction. The kinetic parameters were obtained by fitting the data to a hyperbolic curve and from double reciprocal plots. Inhibition constants were determined from the Lineweaver-Burk plot data with at least five inhibitor concentrations. All the data were studied by a least squares analysis.
Antibody preparations were inactivated without introducing fluorescent products by the addition of the activated ester (Compound 8) in dioxane to a solution of the IgG (5 mg/ml) in Tris-HCl (50 mM, pH 6.5) at a ratio of 5 moles of the ester (Compound 8) per mole IgG.
Protein modification was performed in an analogous manner, by the addition of a dioxane solution of the reagent at a known concentration to the antibody. The solution was incubated for 30 minutes before filtration through Sephadex G-25. The activity remaining was compared to control samples. Aliquots of IgG (5 mg/ml) inactivated with the ester (Compound 8) were diluted with four volumes of phosphate buffer (50 mM, pH 4-9, at intervals of 1 pH unit). Any pH change was recorded, and the sample was stored at 4 degrees C for 24 hours.
Initially, the ester was used at a concentration that was about four-fold greater than that of the protein, and the mixture was incubated at pH 7.2 for 10 minutes. Any change in fluorescence above background was noted.
The termination of the reaction is noted by the return of the rate of fluorescence increase to the background level.

[3] = substrate Compound 5, estimated, read-out: inhibition constant, stoichiometric reaction with Compound 5

Structure (SMILES) | Ki [1] [µM] | Ki [2, 3] [µM] | Ki ([2]; summary, kinetic parameters at low pH values, read-out: Ki (inhibition of antibody esterolysis)) [µM]
CC(=O)Nc1ccc(OP(=O)(O)Cc2ccc(NC(=O)C(F)(F)F)cc2)cc1 [Compound 1i] | 0.8 | 0.1 | 
CC(=O)Nc1ccc(OP(=O)(O)Cc2ccc(NC(=O)C(F)(F)F)cc2)c(CNC(=O)c2cccc(C(=O)O)n2)c1 [Compound 3i] | 0.16 | 0.035 | 0.035
